Results on twelve compounds are retold here after US12187709B2 (Genentech, Inc., priority 2021, dated 2025).

The target in one experiment is Cbl-b (Homo sapiens (Human), UniProt Q13191). Put plainly: Cbl-b LCK Ub TR-FRET assay (Cbl-b Lck HTRF). The experiment is classed as biochemical. The note with it: for IC50: Cbl-b LCK Ub TR-FRET, Example 121; for (fold-selectivity) Cbl-b and C-Cbl Selectivity: ratio C-cbl Lck HTRF IC50 / Cbl-b Lck HTRF IC50. In short, it runs like this: (§1)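 Signal is read once the detection mix has stood 20 min at ambient temperature. Curves are anchored by DMSO as maximum and by omission of LCK as minimum.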

A further experiment deals with c-Cbl (Homo sapiens (Human), UniProt P22681). Put plainly: C-Cbl LCK Ub TR-FRET assay (C-cbl Lck HTRF). The experiment is classed as biochemical. The procedure, abridged:
as §1

Experiment [1] deals with Human Cbl-b (residues 40-426) (Homo sapiens (Human), UniProt Q13191). Put plainly: Cbl-b SPR assay. The experiment is classed as binding. The following applies: for Fold of selectivity: C-cbl SPR Kd vs Cbl-b SPR Kd; for Kd: SPR, 20° C. The procedure, abridged:
(§2)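 Protein captured at 1300-1500 RU; compounds run as 6-point 2-fold series in multi-cycle kinetics (60 s contact, 40 μl/min, 120-1200 s dissociation), fitted 1:1. For slow binders, kd came from chaser-compound occupancy over time, fixed in a single-cycle fit (5 concentrations, top 500 nM).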

The target of another experiment is c-Cbl (residues 47-435) (Homo sapiens (Human), UniProt P22681). Put plainly: c-Cbl SPR assay. The experiment is classed as binding. The note with it: 20° C. In short, it runs like this: as §2
c-Cbl (residues 47-435), sequence (P22681 47-435): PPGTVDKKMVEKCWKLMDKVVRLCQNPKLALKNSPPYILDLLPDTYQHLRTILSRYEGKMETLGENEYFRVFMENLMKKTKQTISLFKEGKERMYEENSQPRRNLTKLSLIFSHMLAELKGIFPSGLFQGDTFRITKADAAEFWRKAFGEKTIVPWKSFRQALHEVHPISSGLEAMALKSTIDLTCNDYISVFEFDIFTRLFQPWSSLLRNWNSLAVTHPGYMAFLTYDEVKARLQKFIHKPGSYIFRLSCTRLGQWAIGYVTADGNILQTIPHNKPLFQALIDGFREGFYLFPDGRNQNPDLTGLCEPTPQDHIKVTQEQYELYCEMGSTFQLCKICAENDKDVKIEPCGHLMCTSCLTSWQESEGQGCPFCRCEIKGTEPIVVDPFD

c-Cbl, sequence (P22681 47-435): as above
Human Cbl-b (residues 40-426), sequence (Q13191 40-426): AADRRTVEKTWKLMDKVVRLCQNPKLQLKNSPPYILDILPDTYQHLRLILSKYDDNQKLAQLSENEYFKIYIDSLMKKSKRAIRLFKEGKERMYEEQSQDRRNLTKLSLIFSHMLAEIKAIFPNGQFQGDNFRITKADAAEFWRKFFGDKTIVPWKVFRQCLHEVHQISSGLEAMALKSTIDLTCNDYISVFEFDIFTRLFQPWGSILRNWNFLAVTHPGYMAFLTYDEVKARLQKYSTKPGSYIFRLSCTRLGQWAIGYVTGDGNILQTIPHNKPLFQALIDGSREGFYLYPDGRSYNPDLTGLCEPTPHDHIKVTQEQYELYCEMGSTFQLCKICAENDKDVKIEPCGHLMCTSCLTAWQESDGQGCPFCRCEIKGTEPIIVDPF
Cbl-b, sequence (Q13191 40-426): as above

In the case of `C[C@@H](NC1(C)CCC1)c1cc2c(c(C(F)(F)F)c1)CN(c1cccc([C@H](c3nncn3C)C3COC3)c1)C2=O` [Compound 444, 2-(3-((R)-(4-methyl-4H-1,2,4-triazol-3-yl)(oxetan-3-yl)methyl)phenyl)-6-((R)-1-((1-methylcyclobutyl)amino)ethyl)-4-(trifluoromethyl)isoindolin-1-one], on Cbl-b, the IC50 is 4.1 nM; the “(fold-selectivity) Cbl-b and C-Cbl Selectivity” value is listed as 1.1x. Moreover, at c-Cbl, it took 4.5 nM to reach half-maximal inhibition (IC50). In experiment [1], this compound yielded a Fold of selectivity of 1.8× and a Kd of 0.4 nM. On c-Cbl (residues 47-435), this compound returned a Kd of 0.7 nM.
For `C[C@H](NC1(C)CCC1)c1cc2c(c(C(F)(F)F)c1)CN(c1cccc([C@H](c3nncn3C)C3COC3)c1)C2=O` [Compound 445, 2-(3-((R)-(4-methyl-4H-1,2,4-triazol-3-yl)(oxetan-3-yl)methyl)phenyl)-6-((S)-1-((1-methylcyclobutyl)amino)ethyl)-4-(trifluoromethyl)isoindolin-1-one], on Cbl-b, the IC50 is 9.7 nM; the “(fold-selectivity) Cbl-b and C-Cbl Selectivity” value was 3.1x. On c-Cbl, this compound returned an IC50 of 30 nM. In experiment [1], the Fold of selectivity came out at 4.7× and binding was put at a Kd of 4.8 nM. The compound also gave a Kd at c-Cbl (residues 47-435) of 23 nM.
As to `Cn1cnnc1[C@]1(c2cccc(N3Cc4c(cc(CNC5(C)CCC5)cc4C(F)F)C3=O)c2)C[C@H](Cl)C1` [Compound 446, 2-(3-((1s,3s)-3-chloro-1-(4-methyl-4H-1,2,4-triazol-3-yl)cyclobutyl)phenyl)-4-(difluoromethyl)-6-(((1-methylcyclobutyl)amino)methyl)isoindolin-1-one], at Cbl-b, the IC50 was 6.8 nM; the “(fold-selectivity) Cbl-b and C-Cbl Selectivity” value came out at 1.7x. At c-Cbl, this compound came in with an IC50 of 11 nM. Also, in experiment [1], the Fold of selectivity came out at 5.1× and the affinity, expressed as Kd, was 1.3 nM. The compound further came in with a Kd at c-Cbl (residues 47-435) of 6.6 nM.
Consider `Cn1cnnc1[C@]1(c2cccc(N3Cc4c(cc(CNC5(C)CCC5)cc4C(F)F)C3=O)c2)C[C@@H](Cl)C1` [Compound 447, 2-(3-((1r,3r)-3-chloro-1-(4-methyl-4H-1,2,4-triazol-3-yl)cyclobutyl)phenyl)-4-(difluoromethyl)-6-(((1-methylcyclobutyl)amino)methyl)isoindolin-1-one], for which, at Cbl-b, the IC50 worked out at 4.5 nM; the “(fold-selectivity) Cbl-b and C-Cbl Selectivity” value was 1.4x. For the same compound, the IC50 against c-Cbl is 6.2 nM. In experiment [1], this compound registered a Fold of selectivity of 5.3× and a Kd of 0.3 nM. Also, binding at c-Cbl (residues 47-435) was characterised by a dissociation constant (Kd) of 1.6 nM.
In the case of `CO[C@H]1C[C@@](c2cccc(N3Cc4ccc(CNC5(C)CCC5)cc4C3=O)c2)(c2nncn2C)C1` [Compound 448, 2-(3-((1s,3s)-3-methoxy-1-(4-methyl-4H-1,2,4-triazol-3-yl)cyclobutyl)phenyl)-6-(((1-methylcyclobutyl)amino)methyl)isoindolin-1-one], the IC50 on Cbl-b was 730 nM; against c-Cbl, 3900 nM. The “(fold-selectivity) Cbl-b and C-Cbl Selectivity” value at Cbl-b came out at 5.5x. In addition, the Fold of selectivity in experiment [1] worked out at 5.8×. Moreover, the values for the Kd (in experiment [1]; at c-Cbl (residues 47-435)) were 420 nM and 2500 nM, respectively.
Turning to `CO[C@H]1C[C@](c2cccc(N3Cc4ccc(CNC5(C)CCC5)cc4C3=O)c2)(c2nncn2C)C1` [Compound 449, 2-(3-((1r,3r)-3-methoxy-1-(4-methyl-4H-1,2,4-triazol-3-yl)cyclobutyl)phenyl)-6-(((1-methylcyclobutyl)amino)methyl)isoindolin-1-one], at Cbl-b, half-maximal inhibition (IC50) was put at 220 nM; the “(fold-selectivity) Cbl-b and C-Cbl Selectivity” value came to 5.4x. Further, half-maximal inhibition on c-Cbl (IC50) was put at 1200 nM. In experiment [1], this compound showed a Fold of selectivity of 8.0× and a Kd of 120 nM. At c-Cbl (residues 47-435), this compound yielded a Kd of 920 nM.
On to `Cn1cnnc1[C@]1(c2cccc(N3Cc4c(cc(CNC5(C)CCC5)cc4C(F)(F)F)C3=O)c2)C[C@@H](OC2CC2)C1` [Compound 450, 2-(3-((1r,3r)-3-cyclopropoxy-1-(4-methyl-4H-1,2,4-triazol-3-yl)cyclobutyl)phenyl)-6-(((1-methylcyclobutyl)amino)methyl)-4-(trifluoromethyl)isoindolin-1-one], for which the IC50 on Cbl-b turned out to be 5.8 nM; at c-Cbl it was 23 nM. Besides, the “(fold-selectivity) Cbl-b and C-Cbl Selectivity” value at Cbl-b was determined as 4.0x. The compound further displayed a Fold of selectivity in experiment [1] of 7.2×. The figures for the Kd (in experiment [1]; on c-Cbl (residues 47-435)) were 2.6 nM and 19 nM, respectively.
For the compound `Cn1cnnc1[C@]1(c2cccc(N3Cc4c(Cl)cc(CNC5(C)CCC5)cc4C3=O)c2)C[C@@H](Cl)C1` [Compound 451, 4-chloro-2-(3-((1r,3r)-3-chloro-1-(4-methyl-4H-1,2,4-triazol-3-yl)cyclobutyl)phenyl)-6-(((1-methylcyclobutyl)amino)-methyl)isoindolin-1-one], on Cbl-b, half-maximal inhibition (IC50) was put at 4.2 nM; the “(fold-selectivity) Cbl-b and C-Cbl Selectivity” value worked out at 1.6x. This compound returned an IC50 at c-Cbl of 6.6 nM. In experiment [1], this compound returned a Fold of selectivity of 6.0× and a Kd of 0.25 nM. The same compound gave a Kd at c-Cbl (residues 47-435) of 1.5 nM.
Turning to `Cn1cnnc1[C@]1(c2cccc(N3Cc4c(Cl)cc(CNC5(C)CCC5)cc4C3=O)c2)C[C@H](Cl)C1` [Compound 452, 4-chloro-2-(3-((1s,3s)-3-chloro-1-(4-methyl-4H-1,2,4-triazol-3-yl)cyclobutyl)phenyl)-6-(((1-methylcyclobutyl)amino)methyl)isoindolin-1-one], at Cbl-b, the IC50 worked out at 5.5 nM; the “(fold-selectivity) Cbl-b and C-Cbl Selectivity” value was 1.0x. Half-maximal inhibition at c-Cbl (IC50) was put at 5.6 nM. In experiment [1], this compound showed a Fold of selectivity of 3.3× and a Kd of 0.7 nM. Also, the Kd on c-Cbl (residues 47-435) was determined as 2.4 nM.
Take `Cn1cnnc1C1(c2cccc(N3Cc4c(cc(C(CF)NC5(C)CCC5)cc4C(F)(F)F)C3=O)c2)CCC1` (stereo not drawn) [Compound 453, 6-(2-fluoro-1-((1-methylcyclobutyl)amino)ethyl)-2-(3-(1-(4-methyl-4H-1,2,4-triazol-3-yl)cyclobutyl)phenyl)-4-(trifluoromethyl)isoindolin-1-one]: on Cbl-b, half-maximal inhibition (IC50) was put at 6.6 nM; the “(fold-selectivity) Cbl-b and C-Cbl Selectivity” value is reported as 1.7x. The compound also yielded an IC50 against c-Cbl of 11 nM. In experiment [1], this compound returned a Fold of selectivity of 2.8× and a Kd of 1.7 nM. In addition, the Kd at c-Cbl (residues 47-435) worked out at 4.8 nM.
Regarding `CC[C@H]1C[C@@](c2cccc(N3Cc4c(cc(CNC5(C)CCC5)cc4C(F)(F)F)C3=O)c2)(c2nncn2C)C1` [Compound 454, 2-(3-((1r,3s)-3-ethyl-1-(4-methyl-4H-1,2,4-triazol-3-yl)cyclobutyl)phenyl)-6-(((1-methylcyclobutyl)amino)methyl)-4-(trifluoromethyl)isoindolin-1-one], the figures for the IC50 on Cbl-b and on c-Cbl were 6.5 nM and 16 nM, respectively. At Cbl-b, the “(fold-selectivity) Cbl-b and C-Cbl Selectivity” value is listed as 2.4x. The Fold of selectivity in experiment [1] was 11×. The Kd in experiment [1] is 0.85 nM; on c-Cbl (residues 47-435), 9.2 nM.
As for `CC[C@H]1C[C@](c2cccc(N3Cc4c(cc(CNC5(C)CCC5)cc4C(F)(F)F)C3=O)c2)(c2nncn2C)C1` [Compound 455, 2-(3-((1s,3r)-3-ethyl-1-(4-methyl-4H-1,2,4-triazol-3-yl)cyclobutyl)phenyl)-6-(((1-methylcyclobutyl)amino)methyl)-4-(trifluoromethyl)isoindolin-1-one], at Cbl-b, the IC50 was 8.7 nM; the “(fold-selectivity) Cbl-b and C-Cbl Selectivity” value was determined as 2.3x. At c-Cbl, this compound showed an IC50 of 20 nM. Besides, in experiment [1], the Fold of selectivity was 11× and the Kd worked out at 1.4 nM. For the same compound, the Kd on c-Cbl (residues 47-435) was 15 nM.
